The text below walks through data of patent US11077039B2, “Topical skin lightening additive and composition with amino acids and nicotinamide compounds” (Conopco, Inc., priority 2016, dated 2021).

Assay [1] relates to Human primary melanocytes. The experiment in a line: Melanin content assay. In kind it is cell-based. The following applies: Melanocyte, 72 h. As for the experimental part: Human primary melanocytes (Cascade Biologics, now ThermoFisher Scientific) were grown in melanocytes growth medium (MGM) with human melanocyte growth supplement (both media components from ThermoFisher Scientific). Melanocytes were seeded at 5×10^4 cells/well in 24 well-plates and incubated in a humidified incubator at 37° C. with 5% CO2 atmosphere. After 24 hours of incubation, cell cultures were treated with the GAP amino acids or additional test reagents above-described, alone or in combination, as described in examples below. The vehicle control consisted of cells treated with the vehicle (0.002 mM NaOH) alone. After treatment, cells were again incubated for 72 hours in a humidified incubator at 37° C. with 5% CO2 atmosphere. At the end of the 72 hour incubation, the culture medium was replaced with 120 uL/well of melanin content assay reagent (10% DMSO in 1M sodium hydroxide) and incubated for 1 hour at 60° C. in a shaker incubator. The supernatant was then transferred to a 384 well plate. The absorbance was measured by spectrophotometric analysis at 405 nm with a micro plate reader (GEnios Pro, Tecan).
The spectrophotometric optical density at 405 nm for untreated cells (no active) was considered as 100% melanin content. Relative melanin content for treated samples was calculated with normalization based on the untreated (media/vehide) control.

In assay [2] the target is T1, tyrosinase (Homo sapiens, UniProt P14679).
T1 construct: host or cells: human primary melanocytes
T1 sequence (P14679 19-529): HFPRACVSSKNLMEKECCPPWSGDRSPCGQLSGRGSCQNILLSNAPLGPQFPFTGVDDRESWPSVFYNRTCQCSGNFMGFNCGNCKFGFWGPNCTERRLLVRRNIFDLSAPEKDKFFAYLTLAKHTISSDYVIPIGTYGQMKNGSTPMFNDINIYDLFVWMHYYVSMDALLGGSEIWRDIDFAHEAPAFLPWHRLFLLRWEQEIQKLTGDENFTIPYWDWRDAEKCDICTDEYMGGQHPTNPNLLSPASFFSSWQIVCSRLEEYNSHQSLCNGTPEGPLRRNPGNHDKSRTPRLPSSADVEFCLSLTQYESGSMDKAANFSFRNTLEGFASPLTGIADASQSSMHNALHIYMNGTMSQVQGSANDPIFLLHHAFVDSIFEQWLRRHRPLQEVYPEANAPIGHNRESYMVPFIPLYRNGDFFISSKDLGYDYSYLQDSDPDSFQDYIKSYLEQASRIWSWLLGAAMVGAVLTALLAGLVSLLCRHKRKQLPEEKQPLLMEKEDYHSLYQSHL
In words: Tyrosinase activity assay (in situ, melanocyte lysate). It counts as cell-based. To be noted: Table 1B, 72 h. As to the method:
Human primary melanocytes (Cascade Biologics, now ThermoFisher Scientific) were grown in melanocytes growth medium (MGM) with human melanocyte growth supplement (both media components from ThermoFisher Scientific). Melanocytes were seeded at 1×10^4 cells/well in a 96 wells plate and cultures left undisturbed for 24 hours in a 5% CO2 humidifed incubator at 37° C. At 24 hrs post-seeding, cells were treated with GAP amino acids or additional test reagents above-described, alone or in combination, as described in examples below and left undisturbed for another 72 hours. Subsequently, cell viability was assessed and the cells were then lysed and progressed for determination of in situ tyrosinase activity. Cultures were rinsed twice with 1× phosphate-buffered saline and lysed with 40 uL of 0.5% TritonX 100 for 1 hr on an ice bed. In situ tyrosinase activity was visualized by addition of 60 μl of 50 mM potassium phosphate buffer (pH 6.8) containing 2 mM DOPA (3,4 dihydroxy phenylalanine) and 4 mM MBTH reagent (3-Methyl-2-Benzothiazolinone hydrazone hydrochloride) for 1 hour at 37° C. The reaction was stopped by the addition of 100 uL of ice-cold 10% tricholoracetic acid and then centrifuged at approximately 300 g for 10 minutes at 4° C. The soluble supernatant was separated from the pellet and the optical density read in a TECAN plate-reader (540 nm filter). The spectrophotometric optical density at 540 nm for untreated cells (media/vehicle) is considered as 100% tyrosinase activity. Tyrosinase activity is expressed after correction for cell numbers (activity/viability) and represented as % control.

Molecules are shown by their SMILES. Read-outs that look alike come from different tables or passages of the source.

Take `NC(=O)c1ccncc1` [Isonicotinamide, isonicotinamide]: the inhibition (in general, the relative decrease from the control value, in per cent) at 5000 µM in assay [1] (Table 1D, Isonicotinamide 5 mM, alone or with GAP, read-out: Melanin synthesis inhibition, Mean of % Inhibition) worked out at 4%. Moreover, the inhibition at 10000 µM in assay [1] (Table 1D, Isonicotinamide 10 mM, alone or with GAP, read-out: Melanin synthesis inhibition, Mean of % Inhibition) was 20%.
On to `NC(=O)c1ccccn1` [Picolinamide, picolinamide], for which, in assay [1] (Table 2, Picolinamide 5 mM, alone or with GAP, read-out: Melanin synthesis inhibition, Mean of % Inhibition), the inhibition at 5000 µM turned out to be 6%. Further, the inhibition at 10000 µM in assay [1] (Table 2, Picolinamide 10 mM, alone or with GAP, read-out: Melanin synthesis inhibition, Mean of % Inhibition) came to 32%.
In the case of `O=C(O)c1cccnc1` [Niacin, niacin], the inhibition at 5000 µM in assay [1] (Table 2B, Niacin 5 mM, alone or with GAP, read-out: Melanin Synthesis inhibition, Mean of % Inhibition) is -7%. Also, the inhibition at 10000 µM in assay [1] (Table 2B, Niacin 10 mM, alone or with GAP, read-out: Melanin Synthesis inhibition, Mean of % Inhibition) worked out at 14%.
In the case of `NC(=O)c1ccc[n+]([C@@H]2O[C@H](CO)[C@@H](O)[C@H]2O)c1` [Nicotinamide Riboside, nicotinamide riboside], the inhibition at 1 µM in assay [1] (Table 1E, Nicotinamide Riboside 1 uM, alone or with GAP, read-out: Melanin synthesis inhibition, Mean of % Inhibition) came out at 4%. The inhibition at 2.5 µM in assay [1] (Table 1E, Nicotinamide Riboside 2.5 uM, alone or with GAP, read-out: Melanin synthesis inhibition, Mean of % Inhibition) came out at 9%.
Consider `CCCCCCc1ccc(O)cc1O` [HR, 4-hexylresorcinol], for which the inhibition at 10 µM in assay [1] (Table 1A, HR 10 uM, read-out: Melanin synthesis inhibition, Mean of % Inhibition) was 35%; in assay [1] (Table 1C, HR 10 μM, read-out: Melanin synthesis inhibition, Mean of % Inhibition) it was 26%; in assay [1] (Table 1D, HR 10 uM, read-out: Melanin synthesis inhibition, Mean of % Inhibition) it was 32%; in assay [1] (Table 1E, HR 10 uM, read-out: Melanin synthesis inhibition, Mean of % Inhibition) it was 28%; in assay [1] (Table 2, HR 10 uM, read-out: Melanin synthesis inhibition, Mean of % Inhibition), 36%; in assay [1] (Table 2B, HR 10 uM, read-out: Melanin Synthesis inhibition, Mean of % Inhibition), 32%. In addition, the inhibition at 10 µM in assay [2] (HR 10 uM) was 67%.
In the case of `NC(=O)c1cccnc1` [Nicotinamide, nicotinamide], the inhibition at 5000 µM in assay [1] (Table 1A, Nicotinamide 5 mM, alone or with GAP, read-out: Melanin synthesis inhibition, Mean of % Inhibition) was found to be 9%; in assay [2] (Nicotinamide 5 mM, alone or with GAP) it was 16%. Further, the inhibition at 10000 µM in assay [1] (Table 1A, Nicotinamide 10 mM, alone or with GAP, read-out: Melanin synthesis inhibition, Mean of % Inhibition) came to 10%; in assay [2] (Nicotinamide 10 mM, alone or with GAP), 24%.
As for `CNC(=O)c1cccnc1` [N-methyl Nicotinamide, n-methyl-nicotinamide], in assay [1] (Table 1C, N-methyl Nicotinamide 5 mM, alone or with GAP, read-out: Melanin synthesis inhibition, Mean of % Inhibition), the inhibition at 5000 µM was found to be 0%. Moreover, the inhibition at 10000 µM in assay [1] (Table 1C, N-methyl Nicotinamide 10 mM, alone or with GAP, read-out: Melanin synthesis inhibition, Mean of % Inhibition) is 7%.
